Results from patent EP0908457B1, “3-(1,2-benzisothiazol- and isoxazol-5-Y1)-2,4(1H,3H)-pyrimidinedione or thione and 3-(1,2-benzisothiazol- and isoxazol-5-y1)-4(3H)-pyrimidinone or thione herbicidal agents” (BASF AKTIENGESELLSCHAFT, priority 1997, dated 1999).

Columns and labels:
[1] = tested on: Echinochloa oryzoides (Ard.) Fritsch.; test: Preemergence weed control under flooded paddy conditions, ECHORC (Watergrass (Calif.)); type: in vivo; conditions: flooded paddy; for ECHORC: herbicidal effect rating 0-9, three to four weeks after treatment; for herbicidal effect rating, ECHORC: meaning of each grade not given here
Cyperus iria = test: Preemergence weed control under flooded paddy conditions, CYPIR (Rice Flatsedge); type: in vivo; conditions: flooded paddy; for CYPIR: herbicidal effect rating 0-9, three to four weeks after treatment; for herbicidal effect rating, CYPIR: meaning of each grade not given here
[2] = tested on: Cyperus serotinus, Rottb.; test: Preemergence weed control under flooded paddy conditions, CYPSE (Flatsedge); type: in vivo; conditions: for CYPSE: herbicidal effect rating 0-9, three to four weeks after treatment; for herbicidal effect rating, CYPSE: meaning of each grade not given here
Sagittaria pygmaea, L. = test: Preemergence weed control under flooded paddy conditions, SAGPY (Arrowhead (Pygmaea)); type: in vivo; conditions: flooded paddy; for SAGPY: herbicidal effect rating 0-9, three to four weeks after treatment; for herbicidal effect rating, SAGPY: meaning of each grade not given here
[3] = tested on: Oryza sativa, (L.) Tebonnet; test: Rice tolerance to post-transplant applications under flooded paddy conditions (Example 187), ORYSAT (Rice, Tebonnet); conditions: for ORYSAT: herbicidal effect rating 0-9, three to four weeks after treatment; for herbicidal effect rating ORYSAT: meaning of each grade not given here
[4] = tested on: Monochoria vaginalis, Presl.; test: Preemergence weed control under flooded paddy conditions, MOOVA (Monochoria); type: in vivo; conditions: flooded paddy; for MOOVA: herbicidal effect rating 0-9, three to four weeks after treatment; for herbicidal effect rating, MOOVA: meaning of each grade not given here
[5] = Rate 0.0320 kg/ha, preemergence, rated 3-4 weeks after treatment
[6] = Rate 0.0620 kg/ha, preemergence, rated 3-4 weeks after treatment
[7] = Rate 0.1250 kg/ha, preemergence, rated 3-4 weeks after treatment
[8] = Rate 0.2500 kg/ha, preemergence, rated 3-4 weeks after treatment
[9] = Rate 0.5000 kg/ha, preemergence, rated 3-4 weeks after treatment
[10] = Rate 0.0320 kg/ha, rated 3-4 weeks after treatment
[11] = Rate 0.0620 kg/ha, rated 3-4 weeks after treatment
[12] = Rate 0.1250 kg/ha, rated 3-4 weeks after treatment
[13] = Rate 0.2500 kg/ha, rated 3-4 weeks after treatment
[14] = Rate 0.5000 kg/ha, rated 3-4 weeks after treatment
[15] = 0.0320 kg/ha, preemergence weeds
[16] = 0.0620 kg/ha, preemergence weeds
[17] = 0.1250 kg/ha, preemergence weeds
[18] = 0.2500 kg/ha, preemergence weeds
[19] = 0.0320 kg/ha, preemergence, rated three to four weeks after treatment
[20] = 0.0620 kg/ha, preemergence, rated three to four weeks after treatment
[21] = 0.1250 kg/ha, preemergence, rated three to four weeks after treatment
[22] = 0.2500 kg/ha, preemergence, rated three to four weeks after treatment
[23] = Rate 0.0320 kg/ha, preemergence weeds, rated three to four weeks after treatment
[24] = Rate 0.0620 kg/ha, preemergence weeds, rated three to four weeks after treatment
[25] = Rate 0.1250 kg/ha, preemergence weeds, rated three to four weeks after treatment
[26] = Rate 0.2500 kg/ha, preemergence weeds, rated three to four weeks after treatment

CCS(=O)(=O)NC(=O)COc1ccc(C)cc1-c1nsc2ccc(-n3c(=O)cc(C(F)(F)F)n(C)c3=O)cc12 [Example 554, Acetamide, 2-{{2-{5-[3,6-dihydro-3-methyl-2,6-dioxo-4-(trifluoromethyl)-1(2H)-pyrimidinyl)-1,2-benzisothiazol-3-yl}-p-tolyl}oxy}-N-(ethylsulfonyl)-]
herbicidal effect rating, ECHORC [1, 5]: 3.0
herbicidal effect rating, ECHORC [1, 6]: 4.1
herbicidal effect rating, ECHORC [1, 7]: 5.7
herbicidal effect rating, ECHORC [1, 8]: 9.0
herbicidal effect rating, ECHORC [1, 9]: 7.0
herbicidal effect rating, CYPIR (Cyperus iria; [5]): 2.0
herbicidal effect rating, CYPIR (Cyperus iria; [6]): 7.0
herbicidal effect rating, CYPIR (Cyperus iria; [7]): 9.0
herbicidal effect rating, CYPIR (Cyperus iria; [8]): 9.0
herbicidal effect rating, CYPIR (Cyperus iria; [9]): 5.0
herbicidal effect rating, CYPSE [2, 5]: 0.0
herbicidal effect rating, CYPSE [2, 6]: 0.0
herbicidal effect rating, CYPSE [2, 7]: 4.0
herbicidal effect rating, CYPSE [2, 8]: 9.0
herbicidal effect rating, CYPSE [2, 9]: 9.0
herbicidal effect rating, SAGPY (Sagittaria pygmaea, L.; [5]): 0.0
herbicidal effect rating, SAGPY (Sagittaria pygmaea, L.; [6]): 0.0
herbicidal effect rating, SAGPY (Sagittaria pygmaea, L.; [7]): 0.0
herbicidal effect rating, SAGPY (Sagittaria pygmaea, L.; [8]): 9.0
herbicidal effect rating, SAGPY (Sagittaria pygmaea, L.; [9]): 0.0
herbicidal effect rating ORYSAT [3, 10]: 4.0
herbicidal effect rating ORYSAT [3, 11]: 4.0
herbicidal effect rating ORYSAT [3, 12]: 6.0
herbicidal effect rating ORYSAT [3, 13]: 7.0
herbicidal effect rating ORYSAT [3, 14]: 6.0
herbicidal effect rating, MOOVA [4, 5]: 9.0
herbicidal effect rating, MOOVA [4, 6]: 9.0
herbicidal effect rating, MOOVA [4, 7]: 9.0
herbicidal effect rating, MOOVA [4, 8]: 9.0
herbicidal effect rating, MOOVA [4, 9]: 9.0

Cn1c(C(F)(F)F)cc(=O)n(-c2ccc3snc(/C=N/Nc4ccccc4)c3c2)c1=O [Example 408, 1,2-Benzisothiazole-3-carboxaldehyde, 5-[3,6-dihydro-3-methyl-2,6-dioxo-4-(trifluoromethyl)-1(2H)-pyrimidinyl]-, 3-(phenylhydrazone), (E)-]
ECHORC [1, 15]: 2.0
ECHORC [1, 16]: 3.0
ECHORC [1, 17]: 6.0
ECHORC [1, 18]: 7.0
CYPIR (Cyperus iria; [15]): 6.0
CYPIR (Cyperus iria; [16]): 9.0
CYPIR (Cyperus iria; [17]): 9.0
CYPIR (Cyperus iria; [18]): 9.0
CYPSE [2, 15]: 0.0
CYPSE [2, 16]: 0.0
CYPSE [2, 17]: 5.0
CYPSE [2, 18]: 6.0
SAGPY (Sagittaria pygmaea, L.; [15]): 0.0
SAGPY (Sagittaria pygmaea, L.; [16]): 0.0
SAGPY (Sagittaria pygmaea, L.; [17]): 4.0
SAGPY (Sagittaria pygmaea, L.; [18]): 6.0
ORYSAT ([3]; 0.0320 kg/ha): 0.0
ORYSAT ([3]; 0.0620 kg/ha): 2.0
ORYSAT ([3]; 0.1250 kg/ha): 2.0
ORYSAT ([3]; 0.2500 kg/ha): 3.0
MOOVA [4, 15]: 7.0
MOOVA [4, 16]: 9.0
MOOVA [4, 17]: 9.0
MOOVA [4, 18]: 9.0

Cc1ccc(OCC(=O)c2ccc(OC(F)F)cc2)c(-c2nsc3ccc(-n4c(=O)cc(C(F)(F)F)n(C)c4=O)cc23)c1 [Example 543, 2,4(1H,3H)-Pyrimidinedione, 3-{3-{6-{[p-(difluoromethoxy)phenacyl]oxy}-m-tolyl}-1,2-benzisothiazol-5-yl}-1-methyl-6-(trifluoromethyl)-]
herbicidal effect rating, ECHORC [1, 5]: 2.1
herbicidal effect rating, ECHORC [1, 6]: 2.9
herbicidal effect rating, ECHORC [1, 7]: 4.0
herbicidal effect rating, ECHORC [1, 8]: 7.0
herbicidal effect rating, ECHORC [1, 9]: 9.0
herbicidal effect rating, CYPIR (Cyperus iria; [5]): 2.0
herbicidal effect rating, CYPIR (Cyperus iria; [6]): 6.0
herbicidal effect rating, CYPIR (Cyperus iria; [7]): 7.0
herbicidal effect rating, CYPIR (Cyperus iria; [8]): 8.0
herbicidal effect rating, CYPIR (Cyperus iria; [9]): 3.0
herbicidal effect rating, CYPSE [2, 5]: 0.0
herbicidal effect rating, CYPSE [2, 6]: 0.0
herbicidal effect rating, CYPSE [2, 7]: 0.0
herbicidal effect rating, CYPSE [2, 8]: 0.0
herbicidal effect rating, CYPSE [2, 9]: 0.0
herbicidal effect rating, SAGPY (Sagittaria pygmaea, L.; [5]): 0.0
herbicidal effect rating, SAGPY (Sagittaria pygmaea, L.; [6]): 0.0
herbicidal effect rating, SAGPY (Sagittaria pygmaea, L.; [7]): 0.0
herbicidal effect rating, SAGPY (Sagittaria pygmaea, L.; [8]): 0.0
herbicidal effect rating, SAGPY (Sagittaria pygmaea, L.; [9]): 0.0
herbicidal effect rating ORYSAT [3, 10]: 0.0
herbicidal effect rating ORYSAT [3, 11]: 0.0
herbicidal effect rating ORYSAT [3, 12]: 1.0
herbicidal effect rating ORYSAT [3, 13]: 2.0
herbicidal effect rating ORYSAT [3, 14]: 2.0
herbicidal effect rating, MOOVA [4, 5]: 9.0
herbicidal effect rating, MOOVA [4, 6]: 9.0
herbicidal effect rating, MOOVA [4, 7]: 9.0
herbicidal effect rating, MOOVA [4, 8]: 9.0
herbicidal effect rating, MOOVA [4, 9]: 9.0

Cn1c(C(F)(F)F)cc(=O)n(-c2ccc3snc(C(=O)NS(=O)(=O)Cc4ccc(Cl)cc4)c3c2)c1=O [Example 468, 1,2-Benzisothiazole-3-carboxamide, N-[(p-chlorobenzyl)sulfonyl]-5-[3,6-dihydro-3-methyl-2,6-dioxo-4-(trifluoromethyl)-1(2H)-pyrimidinyl]-]
ECHORC herbicidal rating [1, 19]: 7.0
ECHORC herbicidal rating [1, 20]: 7.0
ECHORC herbicidal rating [1, 21]: 9.0
ECHORC herbicidal rating [1, 22]: 9.0
CYPIR herbicidal rating (Cyperus iria; [19]): 5.0
CYPIR herbicidal rating (Cyperus iria; [20]): 6.0
CYPIR herbicidal rating (Cyperus iria; [21]): 6.0
CYPIR herbicidal rating (Cyperus iria; [22]): 5.0
CYPSE herbicidal rating [2, 19]: 2.0
CYPSE herbicidal rating [2, 20]: 6.0
CYPSE herbicidal rating [2, 21]: 7.0
CYPSE herbicidal rating [2, 22]: 5.0
SAGPY herbicidal rating (Sagittaria pygmaea, L.; [19]): 3.0
SAGPY herbicidal rating (Sagittaria pygmaea, L.; [20]): 4.0
SAGPY herbicidal rating (Sagittaria pygmaea, L.; [21]): 4.0
SAGPY herbicidal rating (Sagittaria pygmaea, L.; [22]): 5.0
ORYSAT herbicidal rating (rice tolerance) ([3]; 0.0320 kg/ha, rated three to four weeks after treatment): 3.0
ORYSAT herbicidal rating (rice tolerance) ([3]; 0.0620 kg/ha, rated three to four weeks after treatment): 3.0
ORYSAT herbicidal rating (rice tolerance) ([3]; 0.1250 kg/ha, rated three to four weeks after treatment): 5.0
ORYSAT herbicidal rating (rice tolerance) ([3]; 0.2500 kg/ha, rated three to four weeks after treatment): 5.0
MOOVA herbicidal rating [4, 19]: 5.0
MOOVA herbicidal rating [4, 20]: 6.0
MOOVA herbicidal rating [4, 21]: 7.0
MOOVA herbicidal rating [4, 22]: 5.0

Cn1c(C(F)(F)F)cc(=O)n(-c2ccc3snc(-c4ccccc4OCC(=O)O)c3c2)c1=O [Example 312, Acetic acid, {o-{5-[3,6-dihydro-3-methyl-2,6-dioxo-4-(trifluoromethyl)-1(2H)-pyrimidinyl]-1,2-benzisothiazol-3-yl}phenoxy}-]
herbicidal effect rating, ECHORC [1, 23]: 6.0
herbicidal effect rating, ECHORC [1, 24]: 6.5
herbicidal effect rating, ECHORC [1, 25]: 9.0
herbicidal effect rating, ECHORC [1, 26]: 9.0
herbicidal effect rating, CYPIR (Cyperus iria; [23]): 4.5
herbicidal effect rating, CYPIR (Cyperus iria; [24]): 6.5
herbicidal effect rating, CYPIR (Cyperus iria; [25]): 9.0
herbicidal effect rating, CYPIR (Cyperus iria; [26]): 9.0
herbicidal effect rating, CYPSE [2, 23]: 0.0
herbicidal effect rating, CYPSE [2, 24]: 3.5
herbicidal effect rating, CYPSE [2, 25]: 4.5
herbicidal effect rating, CYPSE [2, 26]: 6.0
herbicidal effect rating, SAGPY (Sagittaria pygmaea, L.; [23]): 0.0
herbicidal effect rating, SAGPY (Sagittaria pygmaea, L.; [24]): 2.0
herbicidal effect rating, SAGPY (Sagittaria pygmaea, L.; [25]): 5.5
herbicidal effect rating, SAGPY (Sagittaria pygmaea, L.; [26]): 6.5
herbicidal effect rating ORYSAT ([3]; Rate 0.0320 kg/ha, rated three to four weeks after treatment): 5.0
herbicidal effect rating ORYSAT ([3]; Rate 0.0620 kg/ha, rated three to four weeks after treatment): 6.5
herbicidal effect rating ORYSAT ([3]; Rate 0.1250 kg/ha, rated three to four weeks after treatment): 7.0
herbicidal effect rating ORYSAT ([3]; Rate 0.2500 kg/ha, rated three to four weeks after treatment): 7.5
herbicidal effect rating, MOOVA [4, 23]: 4.5
herbicidal effect rating, MOOVA [4, 24]: 6.0
herbicidal effect rating, MOOVA [4, 25]: 9.0
herbicidal effect rating, MOOVA [4, 26]: 9.0
